Results as given in ChEMBL document CHEMBL4270599, “Synthesis of a 3'-C-ethynyl-β-d-ribofuranose purine nucleoside library: Discovery of C7-deazapurine analogs as potent antiproliferative nucleosides” (Eur J Med Chem, 2018).

Experiments:
Format in all cases: functional
[1] = tested on: HT-29; test: Cytotoxicity against human HT-29 cells after 48 hrs by SRB assay; settings: HT-29, 48 h
[2] = tested on: LOX IMVI; test: Cytotoxicity against human LOXIMVI cells after 48 hrs by SRB assay
[3] = tested on: MDA-MB-435; test: Cytotoxicity against human MDA-MB-435 cells after 48 hrs by SRB assay; settings: MDA-MB-435, 48 h
[4] = tested on: PC-3; test: Cytotoxicity against human PC3 cells after 48 hrs by SRB assay; settings: PC-3, 48 h
[5] = tested on: MCF7; test: Cytotoxicity against human MCF7 cells after 48 hrs by SRB assay; settings: MCF7, 48 h
[6] = tested on: NCI-H522; test: Growth inhibition of human NCI-H522 cells assessed as cell growth at 10^-8 M incubated for 48 hrs by sulforhodamine B assay relative to control; settings: NCI-H522, 48 h, read-out: Activity
[7] = tested on: OVCAR-5; test: Growth inhibition of human OVCAR5 cells assessed as cell growth at 10^-8 M incubated for 48 hrs by sulforhodamine B assay relative to control; settings: OVCAR-5, 48 h, read-out: Activity
[8] = tested on: A498; test: Growth inhibition of human A498 cells assessed as cell growth at 10^-8 M incubated for 48 hrs by sulforhodamine B assay relative to control; settings: A498, 48 h, read-out: Activity
[9] = tested on: CCRF-CEM; test: Growth inhibition of human CCRF-CEM cells assessed as cell growth at 10^-7 M incubated for 48 hrs by sulforhodamine B assay relative to control; settings: read-out: Activity
[10] = tested on: RPMI-8226; test: Growth inhibition of human RPMI8226 cells assessed as cell growth at 10^-7 M incubated for 48 hrs by sulforhodamine B assay relative to control; settings: RPMI-8226, 48 h, read-out: Activity
[11] = tested on: SR; test: Growth inhibition of human SR cells assessed as cell growth at 10^-7 M incubated for 48 hrs by sulforhodamine B assay relative to control; settings: read-out: Activity
[12] = tested on: COLO 205; test: Growth inhibition of human COLO205 cells assessed as cell growth at 10^-7 M incubated for 48 hrs by sulforhodamine B assay relative to control; settings: COLO 205, 48 h, read-out: Activity
[13] = tested on: HT-29; test: Growth inhibition of human HT-29 cells assessed as cell growth at 10^-7 M incubated for 48 hrs by sulforhodamine B assay relative to control; settings: HT-29, 48 h, read-out: Activity
[14] = tested on: SW-620; test: Growth inhibition of human SW620 cells assessed as cell growth at 10^-7 M incubated for 48 hrs by sulforhodamine B assay relative to control; settings: SW-620, 48 h, read-out: Activity
[15] = tested on: SF-539; test: Growth inhibition of human SF539 cells assessed as cell growth at 10^-7 M incubated for 48 hrs by sulforhodamine B assay relative to control; settings: SF-539, 48 h, read-out: Activity
[16] = tested on: M14; test: Growth inhibition of human M14 cells assessed as cell growth at 10^-7 M incubated for 48 hrs by sulforhodamine B assay relative to control; settings: M14, 48 h, read-out: Activity
[17] = tested on: OVCAR-4; test: Growth inhibition of human OVCAR4 cells assessed as cell growth at 10^-7 M incubated for 48 hrs by sulforhodamine B assay relative to control; settings: OVCAR-4, 48 h, read-out: Activity
[18] = tested on: HCC 2998; test: Growth inhibition of human HCC2998 cells assessed as cell growth at 10^-6 M incubated for 48 hrs by sulforhodamine B assay relative to control; settings: HCC 2998, 48 h, read-out: Activity
[19] = tested on: SF-268; test: Growth inhibition of human SF268 cells assessed as cell growth at 10^-6 M incubated for 48 hrs by sulforhodamine B assay relative to control; settings: SF-268, 48 h, read-out: Activity
[20] = tested on: UACC-257; test: Growth inhibition of human UACC257 cells assessed as cell growth at 10^-6 M incubated for 48 hrs by sulforhodamine B assay relative to control; settings: UACC-257, 48 h, read-out: Activity
[21] = tested on: NCI/ADR-RES; test: Growth inhibition of human NCI/ADR-RES cells assessed as cell growth at 10^-6 M incubated for 48 hrs by sulforhodamine B assay relative to control; settings: read-out: Activity
[22] = tested on: RXF 393; test: Growth inhibition of human RXF393 cells assessed as cell growth at 10^-6 M incubated for 48 hrs by sulforhodamine B assay relative to control; settings: RXF 393, 48 h, read-out: Activity
[23] = tested on: SN12C; test: Growth inhibition of human SN12C cells assessed as cell growth at 10^-6 M incubated for 48 hrs by sulforhodamine B assay relative to control; settings: read-out: Activity
[24] = tested on: COLO 205; test: Growth inhibition of human COLO205 cells assessed as cell growth at 10^-5 M incubated for 48 hrs by sulforhodamine B assay relative to control; settings: COLO 205, 48 h, read-out: Activity
[25] = tested on: SW-620; test: Growth inhibition of human SW620 cells assessed as cell growth at 10^-5 M incubated for 48 hrs by sulforhodamine B assay relative to control; settings: SW-620, 48 h, read-out: Activity
[26] = tested on: MDA-MB-435; test: Growth inhibition of human MDA-MB-435 cells assessed as cell growth at 10^-5 M incubated for 48 hrs by sulforhodamine B assay relative to control; settings: MDA-MB-435, 48 h, read-out: Activity
[27] = tested on: PC-3; test: Growth inhibition of human PC3 cells assessed as cell growth at 10^-5 M incubated for 48 hrs by sulforhodamine B assay relative to control; settings: PC-3, 48 h, read-out: Activity
[28] = tested on: HCT-15; test: Growth inhibition of human HCT15 cells assessed as cell growth at 10^-4 M incubated for 48 hrs by sulforhodamine B assay relative to control; settings: HCT-15, 48 h, read-out: Activity
[29] = tested on: OVCAR-3; test: Growth inhibition of human OVCAR3 cells assessed as cell growth at 10^-4 M incubated for 48 hrs by sulforhodamine B assay relative to control; settings: OVCAR-3, 48 h, read-out: Activity
[30] = tested on: NCI/ADR-RES; test: Growth inhibition of human NCI/ADR-RES cells assessed as cell growth at 10^-4 M incubated for 48 hrs by sulforhodamine B assay relative to control; settings: read-out: Activity
[31] = tested on: SK-OV-3; test: Growth inhibition of human SKOV3 cells assessed as cell growth at 10^-4 M incubated for 48 hrs by sulforhodamine B assay relative to control; settings: SK-OV-3, 48 h, read-out: Activity
[32] = tested on: UACC-62; test: Growth inhibition of human UACC62 cells assessed as cell growth at 10^-5 M incubated for 48 hrs by sulforhodamine B assay relative to control; settings: UACC-62, 48 h, read-out: Activity
[33] = read-out: pLC50 (the source's name) (converted)
[34] = read-out: LC50 (the source's name)

SMILES: C#C[C@@]1(O)[C@@H](CO)O[C@@H](n2cc(F)c3c(N)ncnc32)[C@@H]1O
- TGI ([1]; read-out: TGI): > 100 µM
- GI50 ([1]; read-out: pGI50 (converted)): 209 nM
- CC50 [1, 33]: > 100 µM
- TGI ([1]; read-out: pTGI (converted)): > 100 µM
- TGI ([2]; read-out: TGI): 1110 nM
- GI50 ([2]; read-out: pGI50 (converted)): 282 nM
- CC50 [2, 33]: 4.57 µM
- TGI ([2]; read-out: pTGI (converted)): 1120 nM
- TGI ([3]; read-out: TGI): 3.26 µM
- GI50 ([3]; read-out: pGI50 (converted)): 417 nM
- CC50 [3, 33]: 45.7 µM
- TGI ([3]; read-out: pTGI (converted)): 3.24 µM
- CC50 [4, 34]: > 100 µM
- TGI ([4]; read-out: TGI): 3.24 µM
- GI50 ([4]; read-out: pGI50 (converted)): 295 nM
- TGI ([4]; read-out: pTGI (converted)): 3.24 µM
- CC50 [5, 34]: > 100 µM
- GI50 ([5]; read-out: pGI50 (converted)): 102 nM
- growth at 0.01 µM [6]: 84%
- growth at 0.01 µM [7]: 96%
- growth at 0.01 µM [8]: 86%
- growth at 0.1 µM [9]: 81%
- growth at 0.1 µM [10]: 76%
- growth at 0.1 µM [11]: 65%
- growth at 0.1 µM [12]: 81%
- growth at 0.1 µM [13]: 68%
- growth at 0.1 µM [14]: 61%
- growth at 0.1 µM [15]: 107%
- growth at 0.1 µM [16]: 95%
- growth at 0.1 µM [17]: 90%
- growth at 1 µM [18]: 37%
- growth at 1 µM [19]: 42%
- growth at 1 µM [20]: 34%
- growth at 1 µM [21]: 22%
- growth at 1 µM [22]: 42%
- growth at 1 µM [23]: 17%
- growth at 10 µM [24]: -52%
- growth at 10 µM [25]: -5%
- growth at 10 µM [26]: -26%
- growth at 10 µM [27]: -10%
- growth at 100 µM [28]: -33%
- growth at 100 µM [29]: 3%
- growth at 100 µM [30]: -6%
- growth at 100 µM [31]: -30%
- growth at 10 µM [32]: -60%
